The assay deals with P388. Briefly: Cytotoxicity against mouse P388 cells. It counts as functional. The conditions noted are these: read-out: ED50 (the source's name).

≈ marks a conversion by molar mass, not a printed value.

Turning to `C=C(C)[C@]12C[C@@H](C)[C@@]34O[C@](CCCCCCCCCCC)(O[C@@H]1[C@@H]3[C@@H]1O[C@]1(CO)[C@@H](O)[C@]1(O)C(=O)C(C)=C[C@H]14)O2` [MONTANIN], the EC50 is 0.06 µg/mL (≈ 0.107 µM). Next, `C=Cc1c(C)c(O)cc2c1CC[C@@H]1C(C)(C)[C@H](O)CC[C@@]21C` [SPRUCEANOL]: 3.2 µg/mL (≈ 10.7 µM).

Source of the values: ChEMBL document CHEMBL1158660, “Potential anticancer agents. XIV. Isolation of spruceanol and montanin from Cunuria spruceana (Euphorbiaceae)” (1979).
